From patent US8753857B2, “Crystal structure of the pro form of a matrix metalloproteinase and an allosteric processing inhibitor” (Janssen Pharmaceutica N.V., priority 2011, dated 2014)

How the values were obtained:
proMMP9 = target: T1, proMMP9 (Homo sapiens, UniProt P14780); assay: Activation of proMMP9 by human fetal lung fibroblast (HFL-1) cultures (Western blot); assay type: cell-based; conditions: 3.3 μM, 30 nM elastase, 72 hrs, mAb-L51/82
T1 construct: endogenous in cells; host or cells: HFL-1 (ATCC CCL-153), TNFα-stimulated, with 30 nM human neutrophil elastase added
Protocol: Example 2 was assessed additionally for ability to block the maturation of proMMP9 to active MMP9 in cultures of human fetal lung fibroblasts (HFL-1, American Type Culture Collection #CCL-153). Unlike rat synoviocytes, HFL-1 cells were unable to process proMMP9 to the active form without addition of neutrophil elastase. […] Rather, the function of elastase in this assay may be to inactivate tissue inhibitors of matrix metalloproteinases (TIMPs) that repress endogenous pathways of MMP9 activation (Skold, Liu et al. 1999).
HLF-1 were maintained in monolayer culture in DMEM with 10% FCS and were used between passage numbers 5-15. HLF-1 were embedded in collagen gels as described for rat SCW synoviocytes (vida supra). Half mL gels containing 0.4 million cells were dislodged into wells of 12 well Costar plates containing 1 mL/well of DMEM adjusted to contain 0.05% BSA and 100 ng/mL human TNFα (R&D Systems Cat #210-TA/CF). After overnight culture (37° C. and 5% CO2) wells were adjusted to contain an additional 0.5 mL of DMEM containing 0.05% BSA and with or without 13.2 μM Example 2 (final concentration was 3.3 μM Example 2). Next, cultures were adjusted to contain 30 nM human elastase (Innovative Research). The plates were cultured an additional 72 hrs, at which time MMP9 secreted into the conditioned media was bound to gelatin-sepharose and evaluated by Western blot analysis as described for the rat synoviocyte cultures (vida supra). mAb-51/82 detected three forms of MMP9 in HFL-1 cultures.
A second experiment was performed to determine if the 80 kD form was mature active MMP9 and to determine the potency of Example 2 as an inhibitor of MMP9 maturation in this assay. HFL-1 cells embedded in collagen gels were cultured as described above in the presence of TNFα overnight and the cultures were then adjusted to contain 30 nM elastase and graded concentrations of Example 2 for an additional 72 hrs at which time MMP9 secreted into the conditioned media was bound to gelatin-sepharose and evaluated by Western blot analysis for active MMP9 using pAb-1246 raised against the N-terminal neoepitope of active MMP9 (Table 5). In the absence of Example 2, pAb-1246 readily detected MMP9 with an electrophoretic mobility of approximately 80 kD. […] Inhibition occurred over a dose range with an IC50 of approximately 0.3 μM Example 2.

[1] = test system: rats with SCW-induced arthritis; assay: Efficacy in rats with SCW-induced arthritis (ankle thickness, clinical scores); assay type: in vivo, rat; conditions: 5, 20, 50 mg/kg BID oral, Day 18-26
Protocol: SCW PG-PS 10S (Beckton Dickinson Cat#210866) suspended in saline was vortexed for 30 seconds and sonicated for 3 min with a probe type sonicator prior to injection. Female Lewis (LEW/N) rats, 5-6 weeks of age (80-100 g) were injected (i.p.) with SCW PG-PS (15 μg of rhamnose/gram BW) in the lower left quadrant of the abdomen using a 1 mL syringe fitted with a 23-gauge needle. Control (disease-free) rats were treated in a similar manner with sterile saline. Control rats were sacrificed on day 5 and groups of SCW-injected rats were sacrificed on day 5 when acute inflammation was maximal or on day 18 when chronic inflammation was established.
To induce arthritis, Female Lewis (LEW/N) rats, 5-6 weeks of age (80-100 g) were injected (i.p.) with SCW PG-PS as described above. Eighteen days later, arthritis was well established. Calipers were used to measure the width (anterior to posterior surface) of the left and right hind ankles of each rat. Each ankle was measured 3 times and averaged, and treatment groups were randomized based on ankle thickness (Table 6). Commencing on day 18, randomized groups of arthritic rats (n=5 rats/group) received vehicle or 5, 20, or 50 mg/kg Example 2 BID by oral gavage. Vehicle consisted of an aqueous mixture containing 2% (v:v) N-methylpyrrolidone, 5% (v:v) glycerine, and 20% (w:v) captisol. Treatment continued daily through the morning of day 26. […]

T1 sequence (P14780 20-707 limits assumed): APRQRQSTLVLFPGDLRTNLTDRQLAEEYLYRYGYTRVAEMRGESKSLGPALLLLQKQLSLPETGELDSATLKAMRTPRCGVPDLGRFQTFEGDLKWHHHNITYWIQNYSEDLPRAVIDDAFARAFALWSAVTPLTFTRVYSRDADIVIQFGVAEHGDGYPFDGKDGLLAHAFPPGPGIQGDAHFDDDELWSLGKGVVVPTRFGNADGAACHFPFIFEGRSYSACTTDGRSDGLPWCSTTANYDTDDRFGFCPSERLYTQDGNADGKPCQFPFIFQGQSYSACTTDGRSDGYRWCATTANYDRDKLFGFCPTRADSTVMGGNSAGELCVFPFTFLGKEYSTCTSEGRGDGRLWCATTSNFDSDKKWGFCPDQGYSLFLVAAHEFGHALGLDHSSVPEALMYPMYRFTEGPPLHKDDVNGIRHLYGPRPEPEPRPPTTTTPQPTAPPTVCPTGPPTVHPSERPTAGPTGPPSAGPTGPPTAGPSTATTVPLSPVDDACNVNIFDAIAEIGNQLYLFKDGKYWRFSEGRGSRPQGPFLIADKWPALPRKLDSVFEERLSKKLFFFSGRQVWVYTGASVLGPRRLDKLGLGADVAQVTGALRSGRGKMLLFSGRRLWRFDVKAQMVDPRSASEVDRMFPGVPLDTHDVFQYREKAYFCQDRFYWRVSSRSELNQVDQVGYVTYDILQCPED

Cc1nc(C)c(-c2csc(Nc3cc(S(N)(=O)=O)ccc3OC(C)C)n2)s1 [Example 2, 3-(2′,4′-Dimethyl-[4,5′]bithiazolyl-2-ylamino)-4-isopropoxy-benzenesulfonamide.HBr]
Percent of total signal 80 kD (proMMP9): 7%
Percent of total signal 86 kD (proMMP9): 47%
Percent of total signal 100 kD (proMMP9): 46%
Signal Total (proMMP9): 91346 INT * mm^2
Effect on ankle thickness measurements [1]: dose-dependent decrease
Effect on clinical score measurements [1]: dose dependent decrease
